In experiment [1] the target is T1, GII.4-Pro Sydney (Norovirus Hu/GII.4/Sydney/NSW0514/2012/AU, UniProt K4L8Z7).
T1 construct: mature protease cut from ORF1 polyprotein; tag cut with 3C protease when used
Description: FRET protease assay, time-dependent inhibition. The class given is biochemical.

For experiment [2], the target named is T2, GII.4-Pro Sydney (Norovirus Hu/GII.4/Sydney/NSW0514/2012/AU, UniProt K4L8Z7, R1120A). The conditions noted are these: read-out: KI. The source says: (§1) FRET protease assay, time-dependent inhibition on GII.4-Pro Sydney
Experiment [3] addresses T3, (Norovirus norwalkense, UniProt A9YYE3).
T3 construct: mature protease cut from ORF1 polyprotein; pET-46b(+) His-tag with thrombin site, E. coli XJb(DE3); tag cut with thrombin when used
Description: FRET protease assay, time-dependent inhibition. It is filed as biochemical.

In experiment [4] the target is T4, GI.1-Pro (Norovirus Hu/1968/US, UniProt Q83883).
T4 construct: gene ORF1; mature protease cut from ORF1 polyprotein; pET-46b(+) His-tag with thrombin site, E. coli XJb(DE3); tag cut with thrombin when used
The experiment can be described thus: FRET protease assay, time-dependent inhibition. It is filed as biochemical. The source says: FRET protease assay, time-dependent inhibition on GI.1-Pro

For experiment [5], the target named is T5, GI.1-Pro (Norovirus Hu/1968/US, UniProt Q83883, R1212A).
T5 construct: gene ORF1
The class given is biochemical. The note with it: covalent; tight-binding conditions, kchem approximation; GI.1 FRET peptide substrate; pH 8.0, 37 °C, 10 mM DTT; corrected for substrate competition.

The target in experiment [6] is T6, GII.3-Pro (Norovirus Hu/Texas/TCH04-577/2004/US, UniProt B2DD26).
T6 construct: mature protease cut from ORF1 polyprotein; tag cut with 3C protease when used
Description: FRET protease assay, time-dependent inhibition. The class given is biochemical.

Experiment [7] has as its target T1, GII.4-Pro Sydney. The experiment can be described thus: FRET protease assay, time-dependent inhibition. The class given is biochemical. The note with it: covalent; GII FRET peptide substrate; pH 8.0, 37 °C, 10 mM DTT; corrected for substrate competition.
For experiment [8], the target named is T6, GII.3-Pro. The experiment can be described thus: FRET protease assay, time-dependent inhibition. It is filed as biochemical. The conditions noted are these: covalent; GII FRET peptide substrate; pH 8.0, 37 °C, 10 mM DTT; corrected for substrate competition.
For experiment [9], the target named is GII.3-Pro (Norovirus Hu/Texas/TCH04-577/2004/US, UniProt B2DD26, R1120A). The note with it: read-out: KI.
The target of experiment [10] is T2, GII.4-Pro Sydney. Description: biochemical. The conditions noted are these: read-out: kinact/KI (M^-1s^-1).
Excerpt: as §1

Experiment [11] relates to T7, GII.4-Pro HOV.
T7 construct: mature protease cut from ORF1 polyprotein; pET-46b(+) His-tag with thrombin site, E. coli XJb(DE3); tag cut with thrombin when used
The experiment can be described thus: FRET protease assay, time-dependent inhibition. It is filed as biochemical, Norovirus norwalkense. The note with it: covalent; GII FRET peptide substrate; pH 8.0, 37 °C, 10 mM DTT; corrected for substrate competition.

Experiment [12] deals with GII.4-Pro HOV. The source says: FRET protease assay, time-dependent inhibition on GII.4-Pro HOV

Results on one compound are retold here after paper PMC11852804, “Conformational flexibility is a critical factor in designing broad-spectrum human norovirus protease inhibitors” (Journal of Virology, 2025).

Like-named read-outs stand apart in the source and are kept apart here.

For the compound `CCOC(=O)/C=C/[C@H](C[C@@H]1CCNC1=O)NC(=O)[C@@H](CC(=O)[C@@H](NC(=O)c1cc(C)on1)C(C)C)Cc1ccc(F)cc1` [rupintrivir], the kinact/KI on GII.4-Pro Sydney [1] turned out to be 3.73 ± 0.28 M⁻¹ s⁻¹; in experiment [3] it was 5.78 ± 0.21 M⁻¹ s⁻¹; on GI.1-Pro [4], 294 ± 5.7 M⁻¹ s⁻¹; at GI.1-Pro [5], 233.5 ± 8.8 M⁻¹ s⁻¹; at GII.3-Pro [6], 5.34 ± 0.52 M⁻¹ s⁻¹; at GII.4-Pro Sydney [10] it was 4.53 ± 0.59 M⁻¹ s⁻¹. In addition, in the experiment with GII.4-Pro HOV [12], the “kinact/KI” value stood at 6.52 ± 0.77 M⁻¹ s⁻¹. The KI (inactivation) worked out at 438 ± 299 µM at GII.4-Pro Sydney [2]; 1.09 mM at GII.4-Pro Sydney [7]; 1.31 mM on GII.3-Pro [8]; 94 ± 38 µM at GII.3-Pro [9]; 457 ± 52 µM in the experiment with GII.4-Pro HOV [11]; 564 ± 513 µM with GII.4-Pro HOV [12] (read-out: KI).
